Type in all cases: cell-based, human
Test [1] concerns megakaryocytes before polyploidization derived from ES cells. The experiment in a line: Ploidy assay: FACS after Hoechst and anti-CD41a staining. The following applies: for number of cells with 8N or greater: 10 μg/ml. The method, then:
After introduction of MYC and MBI1 genes, the resulting megakaryocytes (about 10^5) were cultured for about 30 days in the absence of doxycycline and presence of estradiol under the culturing conditions of 37° C. and presence of 5% CO2 to proliferate them to about 10^11. Culturing was continued further while changing the condition to the presence of doxycycline and absence of estradiol in order to suppress the expression of the MYC gene and the BMI1 gene in the thus proliferated megakaryocytic cell line and adding an ROCK inhibitor (Y27632; product of Wako Pure Chemicals) to the culture medium to give a concentration of 10 μM in order to determine the influence of Y27632 on polyploidization. On Day 7 after culturing was started while adding Y27632 to the culture medium, the degree of polyploidization was studied using FACS (FIG. 5).
The degree of polyploidization was studied (ploidy assay) by suppressing expression of MYC/BMI1 in the presence of 10 μM of Y27632 while inducing […] of BCL-XL, and culturing the resulting cells for 7 days.
Influence on polyploidization was studied by further treating the cells, which was subjected to the treatment of 2-7-4, with valproic acid. After suppression of expression of MYC/BMI1, forced expression of BCL-XL, treatment with the ROCK inhibitor (10 μM), and suppression of expression of p53, valproic acid (final concentration: 0.5 mM) was added to the medium and culturing was conducted at 39° C. for 7 days.
After suppression of expression of MYC/BMI1, forced expression of BCL-XL, and treatment with blebbistatin (10 μg/ml), the resulting cells were cultured at 39° C. for 7 days.
(§1) Next, the degree of polyploidization when the blebbistatin treatment was used in combination with the other treatments was studied. The cells were subjected to blebbistatin treatment in addition to the above-mentioned treatments in Section 2-7-5 and influence of them on polyploidization was studied. After suppression of expression of MYC/BMI1, forced expression of BCL-XL, treatment with a ROCK inhibitor (10 μM), suppression of expression of p53, and treatment with valproic acid (0.5 mM), treatment with blebbistatin (10 μg/ml) was conducted and then, the resulting cells were cultured at 39° C. for 7 days. […] Induction to mature megakaryocytes was therefore confirmed (lower graph in FIG. 13).

Test [2] concerns iMKPC-type II cells. Briefly: Microscopic observation of polyploidization of iMKPC-type II. The conditions noted are these: 5 μg/ml; c-MYC and BMI1 off, BCL-XL forced, p53 knocked down. From the text: It was observed that by turning off the expression of c-MYC and BMI1, forcing expression of BCL-XL, and knocking down the p53 gene, the cells become increasingly polyploidized.
Test [3] concerns iMKPC-type II cells. The experiment in a line: Platelet production from iMKPC-type II cells: flow cytometry for CD41/CD42b. The following applies: 5 μM, 37° C., 3 days, with/without feeder cells and serum. The method, then:
A platelet production efficiency was measured by using the following conditions in combination as shown in FIG. 17: use/non-use of feeder cells, use/non-use of Conditioned Medium, use of serum medium/use of serum-free medium, and administration/non-administration of blebbistatin.
Conditioned Medium was prepared by seeding 8×10^5 MMC-treated 10T1/2 cells on a 10-cm dish subjected to gelatin coating, changing the medium with 10 ml of a differentiation medium (EBM) containing SCF (50 ng/ml) and TPO (50 ng/ml) and further containing 15% serum or not containing a serum on the next day (after adhesion of cells), recovering the medium and adding 10 ml of a new medium (containing SCF and TPO) 24 hours later, pooling three-day's Conditioned Medium, and filtering the medium through a 0.22-μm filter to remove the 10T1/2 cells. When the resulting medium was used for tests, SCF and TPO were added newly. […]
The platelets contained in the supernatant of the medium were analyzed with a flow cytometer after staining with an antibody CD41 and an antibody CD42b. […]
Comparison in the expression level of CD42b in CD41-positive platelets in each population (a ratio of average fluorescence intensity of each population to average fluorescence intensity of normal condition) is shown in FIG. 18. […]
In general terms: Flow cytometry measures light scatter and fluorescence of single cells or particles in a stream.

Test [4] deals with megakaryocytes (CD41a+). The experiment in a line: Growth curve and micrographs of cells treated with blebbistatin plus the other treatments. The conditions noted are these: 10 μg/ml with the other treatments, after culturing for 7 days. The method, then: as §1
Test [5] concerns iMKPC-type I cells. The experiment in a line: Cytokine dependence of iMKPC-type I proliferation. The conditions noted are these: SCF 50 ng/ml, TPO 50 ng/ml, 37° C., 14 days, 10T1/2 feeder cells. The method, then:
The cytokine dependence of iMKPC-type I was studied by seeding 2×10^5 iMKPC-type I cells on 10T1/2 feeder cells and culturing them for 14 days at 37° C. under the conditions shown in FIG. 1A in the presence of 2 uM of β-estradiol while using the following cytokines: SCF (50 ng/ml), TPO (50 ng/ml), and EPO (6 U/ml). A population in which proliferation was confirmed on Day 4 and Day 11 was counted for cell number, and 2×10^5 cells were replated, while the medium of the other populations was changed. The number of cells was counted on Day 8 and Day 14 and 2×10^5 cells were replated. At the same time, on Day 8, some of the cells were analyzed with a flow cytometer after staining with a CD41 antibody, a CD42b antibody, and a GPA antibody.

Test [6] relates to iMKPC-type II cells. The experiment in a line: Cytokine dependence and surface markers of iMKPC-type II. The conditions noted are these: for proliferation of iMKPC-type II cells: SCF 50 ng/ml, TPO 50 ng/ml, 39° C., 21 days, Dox 0.5 μg/ml. On the procedure:
On 10T1/2 feeder cells, 2×10^5 iMKPC-type II cells were seeded, followed by culturing in the presence of 0.5 μg/ml of Dox at 39° C. for 21 days under the conditions of cytokines, that is, SCF (50 ng/ml), TPO (50 ng/ml), and EPO (6 U/ml).
On Day 21 after addition of cytokine, the cells were analyzed with a flow cytometer after staining with a CD41 antibody, a CD42b body, and a GPA antibody.

For `C[C@@H](N)[C@H]1CC[C@H](C(=O)Nc2ccncc2)CC1.Cl.Cl.O` (relative stereo) [Y27632, (R)-(+)-trans-N-(4-pyridyl)-4-(1-aminoethyl)-cyclohexane carboxamide.2HCl.H2O], in test [1] (10 μM, Day 7, MYC/BMI1 expression suppressed, compared with cells without inhibitor (vehicle)), the “number of cells with 4N (degree of polyploidization)” value is “increase in the number of cells with 4N”.

As to `Cc1ccc2c(c1)C(=O)C1(O)CCN(c3ccccc3)C1=N2` (centres unmarked) [blebbistatin], in test [2], the “polyploidization by microscopic observation” value was “polyploidized further”. Further, in test [3], the “expression level of CD42b in CD41-positive platelets (ratio of average fluorescence intensity to normal condition)” value is recorded as “Influence of blebbistatin was not found” and the “platelet production amount (ratio of number of CD41+ CD42b+ platelets to normal condition)” value is listed as “No significant difference”. The “number of cells with 8N or greater” value in test [1] (39° C., 7 days, MYC/BMI1 suppressed, BCL-XL forced, ROCK inhibitor 10 μM, p53 suppressed, valproic acid 0.5 mM, vs control cells) is on record as “greater”. In test [1] (39° C., 7 days, MYC/BMI1 suppressed, BCL-XL forced, vs cells without blebbistatin), the “number of cells with 8N or greater” value is recorded as “greater”. Moreover, in test [4], the “cell morphology (cytoplasm)” value is “hypertrophy of cytoplasm was observed” and the proliferation capacity entry is given as “slight deterioration in proliferation capacity”.

Consider `CCCC(CCC)C(=O)O` [valproic acid], for which, in test [1] (0.5 mM, 39° C., 7 days, MYC/BMI1 suppressed, BCL-XL forced, ROCK inhibitor 10 μM, p53 suppressed, vs untreated control cells), the degree of polyploidization entry is given as “promoted polyploidization”.

For the molecule “SCF: cytokine added to the culture medium (50 ng/ml)”, in test [5], the “proliferation of iMKPC-type I cells” value was “strongly depended on SCF”. In addition, the “proliferation of iMKPC-type II cells” value in test [6] was “SCF had no influence on proliferation”.

For “TPO: cytokine added to the culture medium (50 ng/ml)”, the “proliferation of iMKPC-type I cells” value in test [5] is reported as “TPO had no influence on their proliferation”. Also, the “expression of CD41a and CD42b” value in test [6] (Day 21 after addition of cytokine, compared with the other populations) was “higher expression in CD41a and CD42b”. Moreover, the “proliferation of iMKPC-type II cells” value in test [6] is “proliferation is promoted further”.
